From patent US20120101083A1, “S1P1 AGONISTS COMPRISING A BICYCLIC N-CONTAINING RING” (GLAXO GROUP LIMITED, priority 2009, published 2012) come the findings set out here.

Structures can show the parent of a compound that is named as a salt.

For test [1], the target named is T1, S1P1 (PathHunter CHO-K1 EDG1 β-Arrestin cell line) (Homo sapiens, UniProt P21453).
T1 construct: host or cells: PathHunter CHO-K1 EDG1 β-Arrestin cell line
The test can be described thus: S1P-1 β-Arrestin recruitment assay. The test is classed as cell-based. The following applies: CHO-K1 EDG1 β-Arrestin cells, chemi-luminescence. The essentials:
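CHO-K1 cells expressing S1P1 and β-arrestin 2 fused to complementing β-galactosidase fragments, at 1×10^4 cells/well in pH 7.4 buffer with 0.1% BSA. Compound exposure 90 min at 37 °C then 15 min room temperature; chemiluminescent substrate added for 60 min before luminescence read.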
Background: Arrestin recruitment assays detect the binding of arrestin to an activated receptor.

For test [2], the target named is T2, S1P1 receptor (S1P1 expressing RH7777 membranes) (Homo sapiens, UniProt P21453).
T2 construct: expressed in transfected cells; host or cells: RH7777 cells (membranes)
T2 sequence (P21453 whole entry): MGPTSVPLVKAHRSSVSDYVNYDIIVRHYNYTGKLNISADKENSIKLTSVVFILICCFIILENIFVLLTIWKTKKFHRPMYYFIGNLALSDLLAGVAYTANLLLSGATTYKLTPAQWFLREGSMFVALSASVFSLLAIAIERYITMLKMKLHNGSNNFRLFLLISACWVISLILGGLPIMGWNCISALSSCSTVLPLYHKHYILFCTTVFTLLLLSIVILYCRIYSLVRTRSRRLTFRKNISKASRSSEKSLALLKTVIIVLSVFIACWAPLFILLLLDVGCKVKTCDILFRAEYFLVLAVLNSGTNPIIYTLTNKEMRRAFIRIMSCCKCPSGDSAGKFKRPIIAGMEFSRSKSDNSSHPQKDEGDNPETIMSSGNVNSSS
The test is described as follows: S1P1 GTPγS assay. The following applies: tested in one of the above S1P1 assays (two GTPγS formats). It is filed as biochemical. The essentials:
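Membranes from RH7777 cells expressing human S1P1 (1.5 μg/well) precoupled 30 min on ice to WGA SPA beads in 20 mM HEPES pH 7.4, 10 mM MgCl2, 100 mM NaCl, with 10 μM GDP and 90 μg/ml saponin. [35S]-GTPγS 0.5 nM final added with compound; SPA signal read immediately.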

T1 sequence (P21453 whole entry): as above
T1 sequence (P32121 whole entry partner): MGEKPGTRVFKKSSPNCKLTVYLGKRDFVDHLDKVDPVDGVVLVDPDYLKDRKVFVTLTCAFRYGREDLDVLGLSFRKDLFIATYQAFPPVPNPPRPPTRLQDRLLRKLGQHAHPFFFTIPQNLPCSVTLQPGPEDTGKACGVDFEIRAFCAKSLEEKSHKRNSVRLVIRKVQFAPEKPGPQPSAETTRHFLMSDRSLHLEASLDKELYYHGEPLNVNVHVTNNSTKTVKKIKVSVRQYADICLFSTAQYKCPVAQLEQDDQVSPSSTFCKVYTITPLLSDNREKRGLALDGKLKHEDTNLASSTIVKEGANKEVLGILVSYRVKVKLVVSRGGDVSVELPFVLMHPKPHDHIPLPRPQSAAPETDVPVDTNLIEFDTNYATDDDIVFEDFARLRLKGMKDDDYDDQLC

Consider `Cc1c(-c2noc(-c3ccc(OC(C)C)c(C#N)c3)n2)ccc2c1CCN(C(=O)CNCCO)CC2` [Example 155, 5-(3-{3-[N-(2-hydroxyethyl)glycyl]-6-methyl-2,3,4,5-tetrahydro-1H-3-benzazepin-7-yl}-1,2,4-oxadiazol-5-yl)-2-[(1-methylethyl)oxy]benzonitrile], for which the results for the EC50 in test [1] and in test [2] were not above 10 nM and 1 nM, respectively.

Take `Cc1c(-c2noc(-c3cnc(OC(C)C)c(C#N)c3)n2)ccc2c1CCN(C[C@@H](O)CO)C2` [Example 133]: the EC50 in test [1] and in test [2] was not above 100 nM throughout.

In the case of `Cc1c(-c2noc(-c3ccc(OC(C)C)c(C#N)c3)n2)ccc2c1CCN(C(=O)[C@H](N)[C@@H](C)O)C2` [Example 56, 5-[3-(2-D-allothreonyl-5-methyl-1,2,3,4-tetrahydro-6-isoquinolinyl)-1,2,4-oxadiazol-5-yl]-2-[(1-methylethyl)oxy]benzonitrile], the 50% effective concentration (EC50) in test [1] and in test [2] was not above 100 nM in each case.

For the compound `Cc1c(-c2noc(-c3ccc(OC(C)C)c(C#N)c3)n2)ccc2c1CCN(C(=O)CNC(CO)CO)CC2` [Example 189, 5-[3-(3-{N-[2-hydroxy-1-(hydroxymethyl)ethyl]glycyl}-6-methyl-2,3,4,5-tetrahydro-1H-3-benzazepin-7-yl)-1,2,4-oxadiazol-5-yl]-2-[(1-methylethyl)oxy]benzonitrile], the EC50 (as a rule, the concentration needed to bring the measured effect to its halfway point) is not above 10 nM in test [1] and not above 100 nM in test [2].

Take `Cc1c(-c2noc(-c3ccc(OC(C)C)c(C#N)c3)n2)ccc2c1CCN(CC(O)CO)C2` (stereo not drawn) [Example 6, 5-{3-[2-(2,3-Dihydroxypropyl)-5-methyl-1,2,3,4-tetrahydro-6-isoquinolinyl]-1,2,4-oxadiazol-5-yl}-2-[(1-methylethyl)oxy]benzonitrile]: the figures for the EC50 in test [1] and in test [2] were not above 10 nM and not above 100 nM, respectively.

For the compound `Cc1c(-c2noc(-c3cnc(OC(C)C)c(C#N)c3)n2)ccc2c1CCN(C(CO)CO)C2` [Example 134, 5-(3-{2-[2-hydroxy-1-(hydroxymethyl)ethyl]-5-methyl-1,2,3,4-tetrahydro-6-isoquinolinyl}-1,2,4-oxadiazol-5-yl)-2-[(1-methylethyl)oxy]-3-pyridinecarbonitrile hydrochloride], the values for the EC50 in test [1] and in test [2] were not above 10 nM and not above 100 nM, respectively.

Regarding `CC(C)Oc1ccc(-c2nc(-c3ccc4c(c3)CCN(CC(=O)NC(CO)CO)CC4)no2)cc1C#N` [Example 195, 2-[7-(5-{3-cyano-4-[(1-methylethyl)oxy]phenyl}-1,2,4-oxadiazol-3-yl)-1,2,4,5-tetrahydro-3H-3-benzazepin-3-yl]-N-[2-hydroxy-1-(hydroxymethyl)ethyl]acetamide hydrochloride], the EC50 in test [1] is not above 10 nM; in test [2] it was not above 100 nM.

Consider `CNCCC(=O)N1CCc2ccc(-c3noc(-c4ccc(OC(C)C)c(C#N)c4)n3)cc2CC1` [Example 67, 5-{3-[3-(N-methyl-b-alanyl)-2,3,4,5-tetrahydro-1H-3-benzazepin-7-yl]-1,2,4-oxadiazol-5-yl}-2-[(1-methylethyl)oxy]benzonitrile], for which the EC50 in test [1] and in test [2] was not above 100 nM in each case.

On to `CC(C)Oc1ccc(-c2nc(-c3ccc4c(c3)CCN(C(=O)CCN)CC4)no2)cc1C#N` [Example 69, 5-[3-(3-β-alanyl-2,3,4,5-tetrahydro-1H-3-benzazepin-7-yl)-1,2,4-oxadiazol-5-yl]-2-[(1-methylethyl)oxy]benzonitrile], for which the EC50 is not above 10 nM in test [1] and not above 100 nM in test [2].

On to `Cc1c(-c2noc(-c3ccc(OC(C)C)c(C#N)c3)n2)ccc2c1CCN(CC(=O)N1CC(O)C1)C2` [Example 123, 5-(3-{2-[2-(3-hydroxy-1-azetidinyl)-2-oxoethyl]-5-methyl-1,2,3,4-tetrahydro-6-isoquinolinyl}-1,2,4-oxadiazol-5-yl)-2-[(1-methylethyl)oxy]benzonitrile hydrochloride], for which the EC50 in test [1] is not above 10 nM; in test [2], not above 100 nM.

Turning to `Cc1c(-c2noc(-c3ccc(OC(C)C)c(C#N)c3)n2)ccc2c1CCN(C(=O)CNCC(O)CO)CC2` (stereo not drawn) [Example 187, 5-(3-{3-[N-(2,3-dihydroxypropyl)glycyl]-6-methyl-2,3,4,5-tetrahydro-1H-3-benzazepin-7-yl}-1,2,4-oxadiazol-5-yl)-2-[(1-methylethyl)oxy]benzonitrile], the concentration giving a half-maximal response (EC50) in test [1] was not above 10 nM; in test [2], not above 100 nM.

`Cc1c(-c2noc(-c3ccc(OC(C)C)c(C#N)c3)n2)ccc2c1CCN(C[C@@H](O)CO)CC2` [Example 154, 5-(3-{3-[(2R)-2,3-dihydroxypropyl]-6-methyl-2,3,4,5-tetrahydro-1H-3-benzazepin-7-yl}-1,2,4-oxadiazol-5-yl)-2-[(1-methylethyl)oxy]benzonitrile hydrochloride]: the EC50 in test [1] and in test [2] was not above 100 nM in each case.

With `CNC(=O)CCCN1CCc2ccc(-c3noc(-c4ccc(OC(C)C)c(C#N)c4)n3)cc2CC1` [Example 24, 4-[7-(5-{3-Cyano-4-[(1-methylethyl)oxy]phenyl}-1,2,4-oxadiazol-3-yl)-1,2,4,5-tetrahydro-3H-3-benzazepin-3-yl]-N-methylbutanamide], the EC50 in test [1] is not above 10 nM; in test [2] it was not above 100 nM.

For the compound `N#Cc1cc(-c2nc(-c3ccc4c(c3)CCN(C(=O)CN)CC4)no2)ccc1OC(CF)CF` [Example 54, 2-{[2-fluoro-1-(fluoromethyl)ethyl]oxy}-5-[3-(3-glycyl-2,3,4,5-tetrahydro-1H-3-benzazepin-7-yl)-1,2,4-oxadiazol-5-yl]benzonitrile], the EC50 in test [1] was not above 10 nM; in test [2] it was not above 100 nM.

`CC(C)Oc1ccc(-c2nc(-c3ccc4c(c3)CCN(C(=O)[C@@](C)(N)CO)CC4)no2)cc1C#N` [Example 81, 2-[(1-methylethyl)oxy]-5-{3-[3-(2-methyl-L-seryl)-2,3,4,5-tetrahydro-1H-3-benzazepin-7-yl]-1,2,4-oxadiazol-5-yl}benzonitrile]: the EC50 in test [1] and in test [2] was not above 100 nM in each case.

On to `Cc1c(-c2noc(-c3ccc(OC(C)C)c(C#N)c3)n2)ccc2c1CCN(C(=O)CCCN)C2` [Example 41, 5-{3-[2-(4-Aminobutanoyl)-5-methyl-1,2,3,4-tetrahydro-6-isoquinolinyl]-1,2,4-oxadiazol-5-yl}-2-[(1-methylethyl)oxy]benzonitrile hydrochloride], for which the results for the EC50 in test [1] and in test [2] were not above 10 nM and not above 100 nM, respectively.

In the case of `Cc1c(-c2noc(-c3ccc(OC(C)C)c(C#N)c3)n2)ccc2c1CCN(CC(N)=O)C2` [Example 3, 2-[6-(5-{3-Cyano-4-[(1-methylethyl)oxy]phenyl}-1,2,4-oxadiazol-3-yl)-5-methyl-3,4-dihydro-2(1H)-isoquinolinyl]acetamide], the EC50 in test [1] is not above 10 nM; in test [2], not above 100 nM.

Consider `CC(C)Oc1ccc(-c2nc(-c3ccc4c(c3)CCN(CC(=O)N3CC(O)C3)CC4)no2)cc1C#N` [Example 93, 5-(3-{3-[2-(3-hydroxy-1-azetidinyl)-2-oxoethyl]-2,3,4,5-tetrahydro-1H-3-benzazepin-7-yl}-1,2,4-oxadiazol-5-yl)-2-[(1-methylethyl)oxy]benzonitrile hydrochloride], for which the EC50 in test [1] and in test [2] was not above 10 nM in each case.

`Cc1c(-c2noc(-c3ccc(OC(C)C)c(C#N)c3)n2)ccc2c1CCN(CCO)C2` [Example 7, 5-{3-[2-(2-Hydroxyethyl)-5-methyl-1,2,3,4-tetrahydro-6-isoquinolinyl]-1,2,4-oxadiazol-5-yl}-2-[(1-methylethyl)oxy]benzonitrile]: the EC50 in test [1] is not above 10 nM; in test [2] it was not above 100 nM.

Consider `CC(C)Oc1ccc(-c2nc(-c3ccc4c(c3)CCN(CC(=O)N3CCOCC3)CC4)no2)cc1C#N` [Example 92, 2-[(1-methylethyl)oxy]-5-(3-{3-[2-(4-morpholinyl)-2-oxoethyl]-2,3,4,5-tetrahydro-1H-3-benzazepin-7-yl}-1,2,4-oxadiazol-5-yl)benzonitrile hydrochloride], for which the EC50 in test [1] is not above 100 nM; in test [2], not above 10 nM.

As for `CC(C)Oc1ccc(-c2nnc(-c3ccc4c(c3)CCN(CCC(N)=O)C4)s2)cc1C#N` [Example 47, 3-[6-(5-{3-cyano-4-[(1-methylethyl)oxy]phenyl}-1,3,4-thiadiazol-2-yl)-3,4-dihydro-2(1H)-isoquinolinyl]propanamide], the EC50 is not above 100 nM in test [1] and not above 1000 nM in test [2].

Consider `CNC(=O)CCCN1CCc2c(ccc(-c3noc(-c4ccc(OC(C)C)c(C#N)c4)n3)c2C)C1` [Example 5, 4-[6-(5-{3-Cyano-4-[(1-methylethyl)oxy]phenyl}-1,2,4-oxadiazol-3-yl)-5-methyl-3,4-dihydro-2(1H)-isoquinolinyl]-N-methylbutanamide], for which the EC50 in test [1] is not above 10 nM; in test [2], not above 100 nM.

For `Cc1c(-c2noc(-c3ccc(OC(C)C)c(C#N)c3)n2)ccc2c1CCN(C(CO)CO)CC2` [Example 156, 5-(3-{3-[2-hydroxy-1-(hydroxymethyl)ethyl]-6-methyl-2,3,4,5-tetrahydro-1H-3-benzazepin-7-yl}-1,2,4-oxadiazol-5-yl)-2-[(1-methylethyl)oxy]benzonitrile hydrochloride], the EC50 was not above 10 nM in test [1] and not above 100 nM in test [2].

Turning to `Cc1c(-c2noc(-c3ccc(OC(C)C)c(C#N)c3)n2)ccc2c1CCN(CC(=O)NC(CO)CO)CC2` [Example 186, 2-[7-(5-{3-cyano-4-[(1-methylethyl)oxy]phenyl}-1,2,4-oxadiazol-3-yl)-6-methyl-1,2,4,5-tetrahydro-3H-3-benzazepin-3-yl]-N-[2-hydroxy-1-(hydroxymethyl)ethyl]acetamide], the EC50 in test [1] was not above 10 nM; in test [2], not above 100 nM.
